{"source": "paper PMC6440977", "about": "“Nucleoside analogue activators of cyclic AMP-independent protein kinase A of Trypanosoma” (Nature Communications, 2019)", "key": {"[1]": {"test_system": "T. brucei ∆pkar/∆pkar (pkar KO) cells", "assay": "microbe, parasite or virus in culture", "assay_type": "cell-based, Trypanosoma brucei", "details": "Trypanosoma brucei"}, "PKAR": {"test_system": "PKAR", "assay": "Western blot quantification of protein abundance, PKAR", "assay_type": "cell-based, Trypanosoma brucei", "details": "WT cells, normalized to PFR, WT 0h set to 1, individual replicates", "excerpt": "Replicate 1 Replicate 2 Replicate 3 PKAR\nWT pkar KOWT pkar KO pkar WTKO1.0PKAC1/2 […]\n(a) Samples prepared for quantitative proteome analysis: PKAR and PKAC1/2 protein levels (top Western panels, red) and RXXS*/T* phos-phorylation (bottom Western panels, phospho-specific anti-RXXS*/T*, red) are quantified as summarized in the column charts next to the Western blots. The scanned values were normalized to the loading control (PFR-A/C, green) and the untreated wild type sample was set to 1. Wild type (WT) and ∆pkar/∆pkar (pkar KO) cells were treated with 7-CN-7-C-Ino (Ino) for the indicated time (PKAR/PKAC1 expression) or for 10 min (RXXS*/T* phosphorylation). Error bars represent SD of three independent experiments.\n>1.5 fold (vertical dashed lines) with a p-value of <0.05 (Welch’s t-test, two-sided) are labeled as blue dots with their TriTrypDB IDs.\nSource data are provided as a Source Data file.\n(also on this page, place not known: WT -Log10 WT6 -Log KO6 2 4 KO -1 / KO0 -Log10 p-value KO12 / KO0 2 4 10 WT (b) p-value p-value 2 4 -Log10 p-value / WT0 -1 0 1 WT12 / WT0 Fold expression 0 0 WT KO 1.0 PKAC1/2 WT pkar KO + - 0 1 2 4 Fold RXXS/T phosphorylation 11) […]\nFor Western blot analysis14, the primary antibodies anti-PKAR7 (1:500), anti - […]\n(ThermoFisher, catalogue number A27042, 1:5000) were used for detection using the OdysseyTM IR fluorescence scanning system. […]"}, "metacaspase 4 (MCA4)": {"test_system": "metacaspase 4 (MCA4)", "assay_type": "cell-based, Trypanosoma brucei", "details": "for MCA4 counts / MCA4 normalized / MCA4 fold change: 4 µM; for MCA4 normalized: normalized to PFR-A/C; for MCA4 fold change: untreated WT set to 1"}, "human PKARIα": {"biological_target": "T1, human PKARIα (Homo sapiens, UniProt P10644)", "T1 construct": "The full length ORFs (amplified with primers introducing the respective); 6xHis followed by TEV site (N); made in house; host or cells: E. coli Rosetta D3", "T1 sequence (P10644 whole entry)": "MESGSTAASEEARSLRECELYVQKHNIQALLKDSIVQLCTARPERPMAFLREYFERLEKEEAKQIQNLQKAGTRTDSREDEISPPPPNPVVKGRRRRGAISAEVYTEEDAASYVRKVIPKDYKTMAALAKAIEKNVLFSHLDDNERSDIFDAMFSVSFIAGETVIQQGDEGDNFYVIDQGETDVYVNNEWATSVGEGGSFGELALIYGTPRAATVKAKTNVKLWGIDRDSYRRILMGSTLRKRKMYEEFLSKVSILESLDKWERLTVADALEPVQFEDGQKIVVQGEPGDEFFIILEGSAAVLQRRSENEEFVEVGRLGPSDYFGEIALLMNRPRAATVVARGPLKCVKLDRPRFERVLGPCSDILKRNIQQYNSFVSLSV", "assay": "Binding by isothermal titration calorimetry (ITC)"}, "T. brucei BSF cells (WT)": {"test_system": "T. brucei BSF cells (WT)", "assay": "Alamar blue cell viability assay, wild type;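 also: trypanosomes seeded at 5×10^3 per ml and grown 72 h with compound, then resazurin 0.5 mM added for 4 h as the viability read-out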"}, "T. brucei PKA": {"biological_target": "T. brucei PKA (Trypanosoma brucei brucei, UniProt Q9GU80)", "sequence (Q38DS1 entry or part of it)": "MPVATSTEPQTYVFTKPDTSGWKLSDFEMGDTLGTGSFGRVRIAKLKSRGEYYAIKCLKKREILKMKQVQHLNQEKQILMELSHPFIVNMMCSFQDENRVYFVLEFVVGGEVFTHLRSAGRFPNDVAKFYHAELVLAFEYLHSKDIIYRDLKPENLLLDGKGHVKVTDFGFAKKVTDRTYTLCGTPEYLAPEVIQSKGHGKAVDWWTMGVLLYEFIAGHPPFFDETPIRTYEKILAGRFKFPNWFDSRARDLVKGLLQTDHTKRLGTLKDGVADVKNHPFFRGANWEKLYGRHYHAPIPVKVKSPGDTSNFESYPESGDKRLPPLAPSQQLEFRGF", "sequence (Q38DR5 entry or part of it, further chain)": "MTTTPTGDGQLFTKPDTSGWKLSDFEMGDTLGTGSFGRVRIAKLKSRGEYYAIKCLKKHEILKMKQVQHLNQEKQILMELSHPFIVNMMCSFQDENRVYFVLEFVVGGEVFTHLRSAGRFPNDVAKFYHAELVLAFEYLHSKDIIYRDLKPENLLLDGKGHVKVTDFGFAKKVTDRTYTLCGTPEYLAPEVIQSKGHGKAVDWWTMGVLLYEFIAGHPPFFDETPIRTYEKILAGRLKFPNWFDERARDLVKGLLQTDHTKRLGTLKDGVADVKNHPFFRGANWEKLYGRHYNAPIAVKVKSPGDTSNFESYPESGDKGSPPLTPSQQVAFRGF", "sequence (Q9GU80 entry or part of it)": "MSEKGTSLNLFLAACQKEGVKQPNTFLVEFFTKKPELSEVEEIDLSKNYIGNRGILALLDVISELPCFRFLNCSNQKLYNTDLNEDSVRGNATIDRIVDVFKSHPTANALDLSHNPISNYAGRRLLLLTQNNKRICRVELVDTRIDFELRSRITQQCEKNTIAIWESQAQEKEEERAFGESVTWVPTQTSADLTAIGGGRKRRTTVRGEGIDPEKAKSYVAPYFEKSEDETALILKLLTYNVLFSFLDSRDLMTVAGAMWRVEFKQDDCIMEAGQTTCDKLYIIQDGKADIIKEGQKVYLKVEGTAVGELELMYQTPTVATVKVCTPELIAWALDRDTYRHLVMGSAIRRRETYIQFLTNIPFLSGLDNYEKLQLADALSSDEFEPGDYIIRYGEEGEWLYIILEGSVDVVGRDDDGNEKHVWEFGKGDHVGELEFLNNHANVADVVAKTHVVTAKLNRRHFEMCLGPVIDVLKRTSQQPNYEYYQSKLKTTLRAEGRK", "assay": "In vivo PKA reporter assay (VASP Ser-157 phosphorylation, western blot);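 also: T. brucei cells expressing human VASP as heterologous PKA substrate, compound exposure at 37 °C, western blot of phospho (50 kDa) versus unphosphorylated (46 kDa) VASP band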", "assay_type": "cell-based"}}, "note": "Where “and” joins values, the source holds several entries; their conditions need not be identical. Identical values can stand only once. Like-named read-outs stand apart in the source and are kept apart here.", "data": [{"smiles": "N#Cc1cn([C@@H]2O[C@H](CO)[C@@H](O)[C@H]2O)c2ncnc(O)c12", "note": "[7-CN-7-C-Ino, 7-Cyano-7-deazainosine]", "values": [{"measurement": "IC50", "setting": "[1]; 72 h, read-out: IC50 growth pkar KO", "value": "≥ 125", "unit": "µM"}, {"measurement": "EC50", "setting": "[1]; read-out: EC50, Alamar blue cell viability assay, KO, individual replicate results, pkar KO cells, fit ambiguous, bound given in µM", "value": "> 125", "unit": "µM"}, {"measurement": "PKAR Western quantification", "setting": "PKAR; 6 h treatment", "value": "0.8653 and 0.7031 and 1.455"}, {"measurement": "PKAR Western quantification", "setting": "PKAR; 12 h treatment", "value": "0.7135 and 0.7185 and 1.457"}, {"measurement": "Western quantification, KO + Ino", "setting": "metacaspase 4 (MCA4); KO cells + Ino, normalized to PFR, WT set to 1, individual replicates, protein not given", "value": "0.3769 and 0.643 and 0.8892"}, {"measurement": "Western quantification, WT + Ino", "setting": "metacaspase 4 (MCA4); WT cells + Ino, normalized to PFR, WT set to 1, individual replicates, protein not given", "value": "3.707 and 4.121 and 2.558"}, {"measurement": "MCA4 counts", "setting": "metacaspase 4 (MCA4); WT, 12 h", "value": 9.21}, {"measurement": "MCA4 normalized", "setting": "metacaspase 4 (MCA4); WT, 12 h", "value": 5.616}, {"measurement": "MCA4 fold change", "setting": "metacaspase 4 (MCA4); WT, 12 h", "value": 0.3804}, {"measurement": "MCA4 counts", "setting": "metacaspase 4 (MCA4); WT, 18 h", "value": 7.41}, {"measurement": "MCA4 normalized", "setting": "metacaspase 4 (MCA4); WT, 18 h", "value": 5.37}, {"measurement": "MCA4 fold change", "setting": "metacaspase 4 (MCA4); WT, 18 h", "value": 0.3637}, {"measurement": "MCA4 counts", "setting": "metacaspase 4 (MCA4); WT, 24 h", "value": 7.18}, {"measurement": "MCA4 normalized", "setting": "metacaspase 4 (MCA4); WT, 24 h", "value": 4.603}, {"measurement": "MCA4 fold change", "setting": "metacaspase 4 (MCA4); WT, 24 h", "value": 0.3117}, {"measurement": "MCA4 counts", "setting": "metacaspase 4 (MCA4); pkar KO, 12 h", "value": 8.83}, {"measurement": "MCA4 normalized", "setting": "metacaspase 4 (MCA4); pkar KO, 12 h", "value": 0.3995}, {"measurement": "MCA4 fold change", "setting": "metacaspase 4 (MCA4); pkar KO, 12 h", "value": 0.8235}, {"measurement": "MCA4 counts", "setting": "metacaspase 4 (MCA4); pkar KO, 18 h", "value": 9.5}, {"measurement": "MCA4 normalized", "setting": "metacaspase 4 (MCA4); pkar KO, 18 h", "value": 0.5278}, {"measurement": "MCA4 fold change", "setting": "metacaspase 4 (MCA4); pkar KO, 18 h", "value": 1.088}, {"measurement": "MCA4 counts", "setting": "metacaspase 4 (MCA4); pkar KO, 24 h", "value": 10.63}, {"measurement": "MCA4 normalized", "setting": "metacaspase 4 (MCA4); pkar KO, 24 h", "value": 0.3562}, {"measurement": "MCA4 fold change", "setting": "metacaspase 4 (MCA4); pkar KO, 24 h", "value": 0.7342}, {"measurement": "MCA4 abundance, in words", "setting": "metacaspase 4 (MCA4); wild type, 12 h post induction", "value": "decreased"}, {"measurement": "binding to purified human PKARIα, in words", "setting": "human PKARIα", "value": "did not bind"}, {"measurement": "increase of EC50 for cell viability compared to Toyo", "setting": "T. brucei BSF cells (WT)", "value": "> 170", "unit": "fold"}, {"measurement": "IC50", "setting": "T. brucei BSF cells (WT); Trypanosoma brucei, 72 h, read-out: IC50 growth WT", "value": "≥ 125", "unit": "µM"}, {"measurement": "EC50", "setting": "T. brucei BSF cells (WT); Trypanosoma brucei, read-out: EC50, Alamar blue cell viability assay, WT, individual replicate results, wild type cells, fit ambiguous, bound given in µM", "value": "> 125", "unit": "µM"}, {"measurement": "effect on growth or viability, in words", "setting": "T. brucei BSF cells (WT); continuous treatment", "value": "does not produce these PKA-independent effects"}, {"measurement": "VASP phosphorylation in PKAC3 deletion + PKAC1/2 RNAi cell line, in words", "setting": "T. brucei PKA; 4 µM, 15 min", "value": "undetectable"}, {"measurement": "EC50", "setting": "T. brucei PKA; read-out: EC50 in vivo PKA assay, VASP reporter, 15 min treatment, mean ± SD", "value": "0.838 ± 0.139", "unit": "µM"}]}]}
